Laboratory results taken from patent publication US12612441B2, “Polypeptide and therapeutic uses thereof” (Vitalixir (Beijing) Co., Ltd, priority 2019, dated 2026).
Where no end group is shown, it is not given here. [ ]: non-standard residue; d: D form. Aib = CC(C)(N)C(=O)O

System: db/db mice
Experiment: Blood glucose lowering in db/db mice (Example 7)
Type: in vivo
Conditions: db/db male mice, 30 nmol/kg subcutaneous single dose, blood glucose 0-10 hours, AUC, vs PBS control; FIG. 1
Experimental: db/db mice were housed in animal feeding rooms with strictly controlled environmental conditions. The temperature in the feeding room was maintained at 20-24° C. and the humidity was maintained at 40-70%. The temperature and humidity of the feeding room were monitored in real time by a temperature and humidity meter, and the temperature and humidity were recorded twice a day (once in the morning and once in the afternoon). The lighting in the animal feeding room was controlled by an electronic timing light-on system. The lights were turned on for 12 hours and turned off for 12 hours every day (on at 7:00 in the morning and off at 19:00 in the afternoon). During the experiment, the mice were individually housed in each cage, and toys were provided to the mice in each cage. During the experiment mice had free access to water. The db/db male mice (6 weeks old) were given one week to acclimate to the environmental conditions of the test facility. Baseline blood glucose and body weight were recorded for three days before the test (−3 day to −1 day). The mice were randomly grouped based on three-day blood glucose and body weight, with 6 mice in each group. The mice were injected subcutaneously with PBS (5 ml/kg, control group) or the peptide compounds 1, 2, 8, 16, 18, 19, 24, and 36 (30 nmol/kg) respectively at 10:00 am. Blood was collected at 0 hour before drug administration, and 1, 2, 4, 6, 8 and 10 hours after administration, and blood glucose was measured using a OneTouch glucose meter (Johnson & Johnson) and test strips. Blood glucose curves were plotted with time as the abscissa and the blood glucose value at different time point as the ordinate, the areas under the curve (AUC) were calculated, and the hypoglycemic effects and duration of time of the peptide compounds were compared.

| Substance | blood glucose |
| --- | --- |
| Y(aib)EGTFTSDLSI(aib)LEKEAVRLFIEWLLAGGPSSGAPPPS-NH2 (YXEGTFTSDLSIXLEKEAVRLFIEWLLAGGPSSGAPPPS; Aib; C-terminal amide; MOD_RES (2)..(2) X=aminoisobutyric aicd; MOD_RES (13)..(13) X=aminoisobutyric aicd; MOD_RES (39)..(39) AMIDATION, C-termianl amidation) [Compound 36] | significantly reduce blood glucose |
| Y(aib)EGTFTSDYSIYLDEEAVKLFVNWLIAGGPSSGAPPPS-NH2 (Y[Aib]EGTFTSDYSIYLDEEAVKLFVNWLIAGGPSSGAPPPS-NH2; N-terminus assumed; SMILES CC[C@H](C)[C@H](NC(=O)[C@H](CC(C)C)NC(=O)[C@H](Cc1c[nH]c2ccccc12)NC(=O)[C@H](CC(N)=O)NC(=O)[C@@H](NC(=O)[C@H](Cc1ccccc1)NC(=O)[C@H](CC(C)C)NC(=O)[C@H](CCCCN)NC(=O)[C@@H](NC(=O)[C@H](C)NC(=O)[C@H](CCC(=O)O)NC(=O)[C@H](CCC(=O)O)NC(=O)[C@H](CC(=O)O)NC(=O)[C@H](CC(C)C)NC(=O)[C@H](Cc1ccc(O)cc1)NC(=O)[C@@H](NC(=O)[C@H](CO)NC(=O)[C@H](Cc1ccc(O)cc1)NC(=O)[C@H](CC(=O)O)NC(=O)[C@H](CO)NC(=O)[C@@H](NC(=O)[C@H](Cc1ccccc1)NC(=O)[C@@H](NC(=O)CNC(=O)[C@H](CCC(=O)O)NC(=O)C(C)(C)NC(=O)[C@@H](N)Cc1ccc(O)cc1)[C@@H](C)O)[C@@H](C)O)[C@@H](C)CC)C(C)C)C(C)C)C(=O)N[C@@H](C)C(=O)NCC(=O)NCC(=O)N1CCC[C@H]1C(=O)N[C@@H](CO)C(=O)N[C@@H](CO)C(=O)NCC(=O)N[C@@H](C)C(=O)N1CCC[C@H]1C(=O)N1CCC[C@H]1C(=O)N1CCC[C@H]1C(=O)N[C@@H](CO)C(N)=O) [Compound 2] | significantly reduce blood glucose |
| Y(aib)EGTFTSDLSIQLEKEAVKLFIEWLLAGGPSSGAPPPS-NH2 (Y[Aib]EGTFTSDLSIQLEKEAVKLFIEWLLAGGPSSGAPPPS-NH2; N-terminus assumed; SMILES CC[C@H](C)[C@H](NC(=O)[C@H](CO)NC(=O)[C@H](CC(C)C)NC(=O)[C@H](CC(=O)O)NC(=O)[C@H](CO)NC(=O)[C@@H](NC(=O)[C@H](Cc1ccccc1)NC(=O)[C@@H](NC(=O)CNC(=O)[C@H](CCC(=O)O)NC(=O)C(C)(C)NC(=O)[C@@H](N)Cc1ccc(O)cc1)[C@@H](C)O)[C@@H](C)O)C(=O)N[C@@H](CCC(N)=O)C(=O)N[C@@H](CC(C)C)C(=O)N[C@@H](CCC(=O)O)C(=O)N[C@@H](CCCCN)C(=O)N[C@@H](CCC(=O)O)C(=O)N[C@@H](C)C(=O)N[C@H](C(=O)N[C@@H](CCCCN)C(=O)N[C@@H](CC(C)C)C(=O)N[C@@H](Cc1ccccc1)C(=O)N[C@H](C(=O)N[C@@H](CCC(=O)O)C(=O)N[C@@H](Cc1c[nH]c2ccccc12)C(=O)N[C@@H](CC(C)C)C(=O)N[C@@H](CC(C)C)C(=O)N[C@@H](C)C(=O)NCC(=O)NCC(=O)N1CCC[C@H]1C(=O)N[C@@H](CO)C(=O)N[C@@H](CO)C(=O)NCC(=O)N[C@@H](C)C(=O)N1CCC[C@H]1C(=O)N1CCC[C@H]1C(=O)N1CCC[C@H]1C(=O)N[C@@H](CO)C(N)=O)[C@@H](C)CC)C(C)C) [Compound 24] | significantly reduce blood glucose |
| Y(aib)EGTFTSDYSIYLEKEAVRLFIEWLIAGGPSSGAPPPS-NH2 (Y[Aib]EGTFTSDYSIYLEKEAVRLFIEWLIAGGPSSGAPPPS-NH2; N-terminus assumed; SMILES CC[C@H](C)[C@H](NC(=O)[C@H](CC(C)C)NC(=O)[C@H](Cc1c[nH]c2ccccc12)NC(=O)[C@H](CCC(=O)O)NC(=O)[C@@H](NC(=O)[C@H](Cc1ccccc1)NC(=O)[C@H](CC(C)C)NC(=O)[C@H](CCCNC(=N)N)NC(=O)[C@@H](NC(=O)[C@H](C)NC(=O)[C@H](CCC(=O)O)NC(=O)[C@H](CCCCN)NC(=O)[C@H](CCC(=O)O)NC(=O)[C@H](CC(C)C)NC(=O)[C@H](Cc1ccc(O)cc1)NC(=O)[C@@H](NC(=O)[C@H](CO)NC(=O)[C@H](Cc1ccc(O)cc1)NC(=O)[C@H](CC(=O)O)NC(=O)[C@H](CO)NC(=O)[C@@H](NC(=O)[C@H](Cc1ccccc1)NC(=O)[C@@H](NC(=O)CNC(=O)[C@H](CCC(=O)O)NC(=O)C(C)(C)NC(=O)[C@@H](N)Cc1ccc(O)cc1)[C@@H](C)O)[C@@H](C)O)[C@@H](C)CC)C(C)C)[C@@H](C)CC)C(=O)N[C@@H](C)C(=O)NCC(=O)NCC(=O)N1CCC[C@H]1C(=O)N[C@@H](CO)C(=O)N[C@@H](CO)C(=O)NCC(=O)N[C@@H](C)C(=O)N1CCC[C@H]1C(=O)N1CCC[C@H]1C(=O)N1CCC[C@H]1C(=O)N[C@@H](CO)C(N)=O) [Compound 16] | significantly reduce blood glucose |
| Y(aib)EGTFTSDYSIYLDEEAVRLFVNWLIAGGPSSGAPPPS-NH2 (Y[Aib]EGTFTSDYSIYLDEEAVRLFVNWLIAGGPSSGAPPPS-NH2; N-terminus assumed; SMILES CC[C@H](C)[C@H](NC(=O)[C@H](CC(C)C)NC(=O)[C@H](Cc1c[nH]c2ccccc12)NC(=O)[C@H](CC(N)=O)NC(=O)[C@@H](NC(=O)[C@H](Cc1ccccc1)NC(=O)[C@H](CC(C)C)NC(=O)[C@H](CCCNC(=N)N)NC(=O)[C@@H](NC(=O)[C@H](C)NC(=O)[C@H](CCC(=O)O)NC(=O)[C@H](CCC(=O)O)NC(=O)[C@H](CC(=O)O)NC(=O)[C@H](CC(C)C)NC(=O)[C@H](Cc1ccc(O)cc1)NC(=O)[C@@H](NC(=O)[C@H](CO)NC(=O)[C@H](Cc1ccc(O)cc1)NC(=O)[C@H](CC(=O)O)NC(=O)[C@H](CO)NC(=O)[C@@H](NC(=O)[C@H](Cc1ccccc1)NC(=O)[C@@H](NC(=O)CNC(=O)[C@H](CCC(=O)O)NC(=O)C(C)(C)NC(=O)[C@@H](N)Cc1ccc(O)cc1)[C@@H](C)O)[C@@H](C)O)[C@@H](C)CC)C(C)C)C(C)C)C(=O)N[C@@H](C)C(=O)NCC(=O)NCC(=O)N1CCC[C@H]1C(=O)N[C@@H](CO)C(=O)N[C@@H](CO)C(=O)NCC(=O)N[C@@H](C)C(=O)N1CCC[C@H]1C(=O)N1CCC[C@H]1C(=O)N1CCC[C@H]1C(=O)N[C@@H](CO)C(N)=O) [Compound 1] | significantly reduce blood glucose |
| Y(aib)EGTFTSDYSIYLEKEAVRLFVNWLIAGGPSSGAPPPS-NH2 (Y[Aib]EGTFTSDYSIYLEKEAVRLFVNWLIAGGPSSGAPPPS-NH2; N-terminus assumed; SMILES CC[C@H](C)[C@H](NC(=O)[C@H](CC(C)C)NC(=O)[C@H](Cc1c[nH]c2ccccc12)NC(=O)[C@H](CC(N)=O)NC(=O)[C@@H](NC(=O)[C@H](Cc1ccccc1)NC(=O)[C@H](CC(C)C)NC(=O)[C@H](CCCNC(=N)N)NC(=O)[C@@H](NC(=O)[C@H](C)NC(=O)[C@H](CCC(=O)O)NC(=O)[C@H](CCCCN)NC(=O)[C@H](CCC(=O)O)NC(=O)[C@H](CC(C)C)NC(=O)[C@H](Cc1ccc(O)cc1)NC(=O)[C@@H](NC(=O)[C@H](CO)NC(=O)[C@H](Cc1ccc(O)cc1)NC(=O)[C@H](CC(=O)O)NC(=O)[C@H](CO)NC(=O)[C@@H](NC(=O)[C@H](Cc1ccccc1)NC(=O)[C@@H](NC(=O)CNC(=O)[C@H](CCC(=O)O)NC(=O)C(C)(C)NC(=O)[C@@H](N)Cc1ccc(O)cc1)[C@@H](C)O)[C@@H](C)O)[C@@H](C)CC)C(C)C)C(C)C)C(=O)N[C@@H](C)C(=O)NCC(=O)NCC(=O)N1CCC[C@H]1C(=O)N[C@@H](CO)C(=O)N[C@@H](CO)C(=O)NCC(=O)N[C@@H](C)C(=O)N1CCC[C@H]1C(=O)N1CCC[C@H]1C(=O)N1CCC[C@H]1C(=O)N[C@@H](CO)C(N)=O) [Compound 8] | significantly reduce blood glucose |
| Y(aib)EGTFTSDLSIQLEKEAARLFIEWLLAGGPSSGAPPPS-NH2 (Y[Aib]EGTFTSDLSIQLEKEAARLFIEWLLAGGPSSGAPPPS-NH2; N-terminus assumed; SMILES CC[C@H](C)[C@H](NC(=O)[C@H](Cc1ccccc1)NC(=O)[C@H](CC(C)C)NC(=O)[C@H](CCCNC(=N)N)NC(=O)[C@H](C)NC(=O)[C@H](C)NC(=O)[C@H](CCC(=O)O)NC(=O)[C@H](CCCCN)NC(=O)[C@H](CCC(=O)O)NC(=O)[C@H](CC(C)C)NC(=O)[C@H](CCC(N)=O)NC(=O)[C@@H](NC(=O)[C@H](CO)NC(=O)[C@H](CC(C)C)NC(=O)[C@H](CC(=O)O)NC(=O)[C@H](CO)NC(=O)[C@@H](NC(=O)[C@H](Cc1ccccc1)NC(=O)[C@@H](NC(=O)CNC(=O)[C@H](CCC(=O)O)NC(=O)C(C)(C)NC(=O)[C@@H](N)Cc1ccc(O)cc1)[C@@H](C)O)[C@@H](C)O)[C@@H](C)CC)C(=O)N[C@@H](CCC(=O)O)C(=O)N[C@@H](Cc1c[nH]c2ccccc12)C(=O)N[C@@H](CC(C)C)C(=O)N[C@@H](CC(C)C)C(=O)N[C@@H](C)C(=O)NCC(=O)NCC(=O)N1CCC[C@H]1C(=O)N[C@@H](CO)C(=O)N[C@@H](CO)C(=O)NCC(=O)N[C@@H](C)C(=O)N1CCC[C@H]1C(=O)N1CCC[C@H]1C(=O)N1CCC[C@H]1C(=O)N[C@@H](CO)C(N)=O) [Compound 18] | significantly reduce blood glucose |
